Results reported in patent US20230123334A1, “AMINO LIPID COMPOUND, PREPARATION METHOD THEREFOR, AND APPLICATION THEREOF” (SHENZHEN SHENXIN BIOTECHNOLOGY CO., LTD., priority 2020, published 2023).

The compounds below were run on HEK293 cells (assay: Preliminary screening as mRNA vectors, EGFP mRNA transfection of HEK293 cells). Settings: EGFP mRNA 50 ng per well, 96-well plates; percentage of GFP fluorescent cells relative to total number of cells (Hoechst).
Format: cell-based
Outline: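 Each well of HEK293 cells received 50 ng of EGFP mRNA. Efficiency was expressed as percent GFP-expressing cells over Hoechst-defined total cell number.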

Row | SMILES | Absolute mRNA transfection efficiency in HEK293 cells
1 | CCCCCCCCCCCCSc1nc(NCCCCCC)nc(NCCN2CCOCC2)n1 [Compound D2S12N6] | 0.0%
2 | CCCCCCCCCCCCNc1nc(NCC2CCN(C)CC2)nc(SCCCCCC)n1 [Compound D10S6N12] | 9.6%
3 | CCCCCCCCCCCCNc1nc(NCCN2CCCCC2)nc(SCCCCCCCCC)n1 [Compound D4S9N12] | 9.5%
4 | CCCCCCCCCCCCSc1nc(NCCCCCCCCC)nc(NCCN(C)C)n1 [Compound D1S12N9] | 34.2%
5 | CCCCCCCCCCCCCCCCNc1nc(NCC2CCN(C)CC2)nc(SCCCCCCCCCCCC)n1 [Compound D10S12N16] | 3.4%
6 | CCCCCCCCCNc1nc(NCCCN(C)C)nc(SCCCCCCC)n1 [Compound D6S7N9] | 5.9%
7 | CCCCCCCCCNc1nc(NCCCN2CCOCC2)nc(SCCCCCCCCC)n1 [Compound D8S9N9] | 14.0%
8 | CCCCCCCCCCCCCNc1nc(NCCCN2CCN(C)CC2)nc(SCCCCCCCC)n1 [Compound D9S8N13] | 46.5%
9 | CCCCCCCCSc1nc(NCCCN2CCOCC2)nc(SCCCCCCCC)n1 [Compound D8S8S8] | 48.2%
10 | CCCCCCCCCCCCCCSc1nc(NCCN2CCN(C)CC2)nc(SCCCCCC)n1 [Compound D5S6S14] | 45.3%
11 | CCCCCCCCCCCCCCCCSc1nc(NCCCCCC)nc(NCCN2CCOCC2)n1 [Compound D2S16N6] | 23.6%
12 | CCCCCCCCCCCCCCCCCCNc1nc(NCCN(CC)CC)nc(SCCCCCCCC)n1 [Compound D7S8N18] | 12.8%
13 | CCCCCCCCCCCSc1nc(NCCCCCCCCC)nc(NCCN(C)C)n1 [Compound D1S11N9] | 14.7%
14 | CCCCCCCCCCCCCCCCCCSc1nc(NCCCCCCCCCCCC)nc(NCC2CCN(C)CC2)n1 [Compound D10S18N12] | 2.0%
15 | CCCCCCCCCCCCCCCCNc1nc(NCCN(CC)CC)nc(SCCCCCCC)n1 [Compound D7S7N16] | 12.8%
16 | CCCCCCCSc1nc(NCCCCCC)nc(NCCN(CC)CC)n1 [Compound D7S7N6] | 2.3%
17 | CCCCCCCCCCCCNc1nc(NCCCN(C)C)nc(SCCCCCCCCCCC)n1 [Compound D6S11N12] | 15.9%
18 | CCCCCCCCCCCCCCSc1nc(NCCN2CCCCC2)nc(SCCCCCC)n1 [Compound D4S6S14] | 5.3%
19 | CCCCCCCCCCCCCCCSc1nc(NCCCCCCCCCCC)nc(NCCN2CCCC2)n1 [Compound D3S15N11] | 23.2%
20 | CCCCCCCCCCCCCCCNc1nc(NCC2CCN(C)CC2)nc(SCCCCCCCCCCCCCCC)n1 [Compound D10S15N15] | 2.4%
21 | CCCCCCCCCCCCCCCCCCSc1nc(NCCCCCCCCCCCCCCCC)nc(NCCN(C)C)n1 [Compound D1S18N16] | 0.1%
22 | CCCCCCCCCSc1nc(NCCCCCC)nc(NCC2CCN(C)CC2)n1 [Compound D10S9N6] | 0.6%
23 | CCCCCCCCCCCCCCCCCCSc1nc(NCCCCCCCCC)nc(NCCCN(C)C)n1 [Compound D6S18N9] | 40.1%

Row | SMILES | Absolute mRNA transfection efficiency in HEK293 cells
24 | CCCCCCCCCCCCCCCSc1nc(NCCCCCCCC)nc(NCCN(C)C)n1 [Compound D1S15N8] | 98.3%
25 | CCCCCCCCCCCSc1nc(NCCCCCC)nc(NCCN2CCN(C)CC2)n1 [Compound D5S11N6] | 26.9%
26 | CCCCCCCCCCCCCCCCSc1nc(NCCCCCCCCCCCCC)nc(NCCN2CCCCC2)n1 [Compound D4S16N13] | 0.1%
27 | CCCCCCCCCCCCCCCCCCNc1nc(NCCCN(C)C)nc(SCCCCCCCCCCCCCCCCCC)n1 [Compound D6S18N18] | 0.0%
28 | CCCCCCCCCCCCCCCCCCSc1nc(NCCCCCCCCCCC)nc(NCCN2CCCC2)n1 [Compound D3S18N11] | 30.9%
29 | CCCCCCCCCCSc1nc(NCCCCCCCC)nc(NCCN2CCCC2)n1 [Compound D3S10N8] | 0.4%
30 | CCCCCCCCCCCCCCCCCCSc1nc(NCCCCCCCCCCCCC)nc(NCCN2CCCC2)n1 [Compound D3S18N13] | 1.0%
31 | CCCCCCCCCCCNc1nc(NCCN2CCN(C)CC2)nc(SCCCCCCCC)n1 [Compound D5S8N11] | 30.1%
32 | CCCCCCCCCNc1nc(NCC2CCN(C)CC2)nc(SCCCCCC)n1 [Compound D10S6N9] | 1.2%
33 | CCCCCCCCCCCCN(CCCCCCCCCCCC)c1nc(NCCN2CCCC2)nc(SCCCCCCC)n1 [D3S7^2N12] | 0.4%
34 | CCCCCCCCCCCCCCCSc1nc(NCCCCCC)nc(NCCCN2CCN(C)CC2)n1 [Compound D9S15N6] | 30.7%
35 | CCCCCCCCCCCCCCCCNc1nc(NCCN2CCCC2)nc(SCCCCCCCCCCCCCCC)n1 [Compound D3S15N16] | 7.6%
36 | CCCCCCCCCCCCCCCCSc1nc(NCCCCCCCCCCCC)nc(NCC2CCN(C)CC2)n1 [Compound D10S16N12] | 9.2%
37 | CCCCCCCCCCCCCCCCCCSc1nc(NCCCCCCCCCCCCC)nc(NCCN2CCCCC2)n1 [Compound D4S18N13] | 0.7%
38 | CCCCCCCCCCCCCCCCSc1nc(NCCN(C)C)nc(SCCCCCCC)n1 [Compound D1S7S16] | 6.9%
39 | CCCCCCCCCCCCCCCNc1nc(NCCN2CCCC2)nc(SCCCCCCCCC)n1 [Compound D3S9N15] | 67.9%
40 | CCCCCCCCSc1nc(NCCCN(C)C)nc(SCCCCCCCC)n1 [Compound D6S8S8] | 45.6%
41 | CCCCCCCCCCCCCCCCSc1nc(NCCN2CCOCC2)nc(SCCCCCC)n1 [Compound D2S6S16] | 16.0%
42 | CCCCCCCCCCCCCCCNc1nc(NCCN(CC)CC)nc(SCCCCCCCCCCCCCC)n1 [Compound D7S14N15] | 0.8%
43 | CCCCCCCCCCCCCCCCCCSc1nc(NCCCCCC)nc(NCCN2CCCC2)n1 [Compound D3S18N6] | 58.9%
44 | CCCCCCCCCNc1nc(NCCCN2CCN(C)CC2)nc(SCCCCCCCCC)n1 [Compound D9S9N9] | 76.1%
45 | CCCCCCCCCCCCCCCNc1nc(NCCCN(C)C)nc(SCCCCCCCCCCCC)n1 [Compound D6S12N15] | 1.6%
46 | CCCCCCCCCCCCCCSc1nc(NCCN(C)C)nc(N(CCCCCCCCCCCC)CCCCCCCCCCCC)n1 [D1S14^2N12] | 0.1%

Row | SMILES | Absolute mRNA transfection efficiency in HEK293 cells
47 | CCCCCCCCCCCCCCCNc1nc(NCCN2CCCCC2)nc(SCCCCCCCCCCC)n1 [Compound D4S11N15] | 17.0%
48 | CCCCCCCCCCCCCCCSc1nc(NCCCCCCCCC)nc(NCCCN(C)C)n1 [Compound D6S15N9] | 61.9%
49 | CCCCCCCCCCCCCCCCNc1nc(NCCN2CCCC2)nc(SCCCCCCCCC)n1 [Compound D3S9N16] | 50.3%
50 | CCCCCCCCCCCNc1nc(NCC2CCN(C)CC2)nc(SCCCCCCCCC)n1 [Compound D10S9N11] | 66.0%
51 | CCCCCCCCCCSc1nc(NCCCCCCCC)nc(NCCN2CCN(C)CC2)n1 [Compound D5S10N8] | 8.6%
52 | CCCCCCCCCCCCCCSc1nc(NCCCCCCCCCCCC)nc(NCCN2CCOCC2)n1 [Compound D2S14N12] | 2.1%
53 | CCCCCCCCCCCCCCCCCCSc1nc(NCCCCCCC)nc(NCCCN2CCN(C)CC2)n1 [Compound D9S18N7] | 86.6%
54 | CCCCCCCCCCCCCCCCCCNc1nc(NCCCN2CCN(C)CC2)nc(SCCCCCCCC)n1 [Compound D9S8N18] | 29.4%
55 | CCCCCCCNc1nc(NCCN(C)C)nc(SCCCCCC)n1 [Compound D1S6N7] | 2.3%
56 | CCCCCCCCCCCCCCCCCCSc1nc(NCCCCCCCCCCC)nc(NCCN2CCCCC2)n1 [Compound D4S18N11] | 0.9%
57 | CCCCCCCCCCCCCCCCCCSc1nc(NCCN2CCOCC2)nc(SCCCCCC)n1 [Compound D2S6S18] | 12.1%
58 | CCCCCCCCCCCCCCCCCCNc1nc(NCCCN(C)C)nc(SCCCCCCCC)n1 [Compound D6S8N18] | 40.4%
59 | CCCCCCCCCCCCCCCCCCNc1nc(NCCN2CCN(C)CC2)nc(SCCCCCCCCC)n1 [Compound D5S9N18] | 28.6%
60 | CCCCCCCCCCCCCNc1nc(NCC2CCN(C)CC2)nc(SCCCCCC)n1 [Compound D10S6N13] | 22.7%
61 | CCCCCCCCCNc1nc(NCCCN(C)C)nc(SCCCCCCCCC)n1 [Compound D6S9N9] | 19.8%
62 | CCCCCCCCCCCCCCCNc1nc(NCCN2CCCC2)nc(SCCCCCC)n1 [Compound D3S6N15] | 14.4%
63 | CCCCCCCCCNc1nc(NCCN(CC)CC)nc(SCCCCCCCCC)n1 [Compound D7S9N9] | 17.8%
64 | CCCCCCCCCCCCCCCCCCSc1nc(NCCCCCCCC)nc(NCC2CCN(C)CC2)n1 [Compound D10S18N8] | 16.8%
65 | CCCCCCCCCCCCCCCSc1nc(NCCCCCCCCCCCCC)nc(NCCN(C)C)n1 [Compound D1S15N13] | 1.5%
66 | CCCCCCCCCCCCCCCCCCNc1nc(NCCCN(C)C)nc(SCCCCCCC)n1 [Compound D6S7N18] | 49.2%
67 | CCCCCCCCCCCCCCCCSc1nc(NCCCCCCC)nc(NCCCN2CCN(C)CC2)n1 [Compound D9S16N7] | 97.9%
